Assay: Human HepG2 cell viability assay in 384 well format
Assay type: toxicity, cell-based
Parameters: dose 125 nL, time 70.5 hour; concentration not given beside the values
Conditions: HepG2 cells, read-out: Inhibition

Row | SMILES | cytotoxicity at 70.5 h
1 | Cn1cc(CNc2nc3cc(Cl)ccc3n2C)cn1 | -0.411%
2 | Cc1c(F)cccc1S(=O)(=O)Nc1noc(C(C)C)n1 | -7.44%
3 | Cc1nc(NS(=O)(=O)c2cccc(F)c2C)no1 | 6.79%
4 | C=C(C)Cn1cc(C(N)=O)nc1C1CC1 | 20.9%
5 | CC(C)c1nnc2n1CC(CNC/C=C/c1ccccc1)CC2 (stereo not drawn) | -7.41%
6 | Cc1nn(C)c2ncc(CNCCc3ccccn3)cc12 | -8.59%
7 | CN1CCN(C)C(CNC(=O)N(C)Cc2ccc(Cl)c(F)c2)C1 (stereo not drawn) | -11.2%
8 | CCOc1c(F)cccc1C(=O)N(C)CCn1cccn1 | 7.19%
9 | CC(C)c1cc(NC(=O)CNC2CCc3ncnn3C2)on1 (stereo not drawn) | 11.4%
10 | CCOC(C)c1nccn1CCC(=O)Nc1cc(C)on1 (stereo not drawn) | 6.06%
11 | CC(C)c1nc(NS(=O)(=O)c2ccccc2Cl)no1 | 0.444%
12 | CCc1cc(C)c(C(=O)N2CCCC(c3nnn[nH]3)C2)o1 (stereo not drawn) | -0.273%
13 | Cc1n[nH]c(C2CN(CCNC3CCCCC3)CCO2)n1 (stereo not drawn) | 3.49%
14 | CC(C(=O)NC(C)(C)C)S(=O)(=O)Cc1noc(C(C)(C)C)n1 (stereo not drawn) | -5.8%
15 | Cc1ccc(CN(c2cc(C)nc3nc(C(F)(F)F)nn23)C2CC2)cc1 | 0.825%
16 | CC(=O)C(Cc1ccccc1)NC(=O)CSc1nccn1C1CC1 (stereo not drawn) | -0.98%
17 | Cc1cc(N(Cc2ccccn2)C2CC2)n2nc(C(F)(F)F)nc2n1 | -0.852%
18 | O=C1CSc2ccc(C(=O)N3CCCC(n4ccnc4)C3)cc2N1 (stereo not drawn) | -1.51%
19 | CC(=O)NCc1ccc(S(=O)(=O)NC(=O)c2ccc3c(c2)COC3)s1 | 0.101%
20 | N#CCCN(CC1CCOC1)Cn1ccc(-c2ccccc2)n1 (stereo not drawn) | -0.616%
21 | CC(C)(C)c1cnc(CN2CCCS(=O)(=O)CC2)o1 | -1.34%
22 | CN1CCN(C2CCN(Cc3noc(C4CC4)n3)CC2)C1=O | -1.19%
23 | COCCN(c1cc(C)nc2nc(C(F)(F)F)nn12)C1CCCC1 | 12.8%
24 | CC(=O)NCc1ccc(S(=O)(=O)NC(=O)c2ccc3c(c2)COC3)cc1 | -4.89%
25 | O=C(c1cnc2n1CCCC2)N1CCCC1 | -2.75%

Row | SMILES | cytotoxicity at 70.5 h
26 | N#CCCN(CC1CCOC1)Cn1ccc(-c2cccs2)n1 (stereo not drawn) | 8.39%
27 | Cc1nc(C)c(C(=O)N2CCc3cc(F)ccc3C2C)o1 (stereo not drawn) | -4.82%
28 | CC(NCCn1cccn1)c1cc(F)ccc1F (stereo not drawn) | -3.98%
29 | CC(NCCn1cccn1)c1ccc(F)cc1F (stereo not drawn) | -2.25%
30 | CCCC(C)CS(=O)(=O)NCc1cccnc1N(C)C (stereo not drawn) | -1.93%
31 | CNc1ncc(C(=O)N2CCCC(Cc3ccccc3OC)C2)s1 (stereo not drawn) | 20.4%
32 | c1cc(CNCCC2CCCO2)ccn1 (stereo not drawn) | 5.59%
33 | N#Cc1ccc(CN2CCCCC2Cn2cncn2)c(F)c1 (stereo not drawn) | 4.33%
34 | CC1CCCN(S(=O)(=O)NCCN/C(O)=C2/N=CC=CC2=O)C1 (stereo not drawn) | 0.429%
35 | Cc1cc(C)n(CC(C)CNC(=O)N(C)Cc2cc(C)on2)n1 (stereo not drawn) | -8.81%
36 | Cc1cc(C)n(CC(C)CNC(=O)CCc2ccco2)n1 (stereo not drawn) | -6.24%
37 | Cc1cc(C)n(CC(C)CNC(=O)N(C)Cc2ccco2)n1 (stereo not drawn) | -10.5%
38 | CCN(Cc1cccc(C(N)=O)c1)c1ccccc1 | 12.2%
39 | Cc1nn(C)c2ncc(NC(=O)N(C)Cc3cnn(C)c3)cc12 | -14%
40 | CCN(CC1CCOC1)S(=O)(=O)Cc1ccccc1Cl (stereo not drawn) | -6.21%
41 | CC(=O)N(C)CC(=O)NC(CC(C)C)c1cccs1 (stereo not drawn) | -5.7%
42 | Cc1nc2ccccc2nc1CN1CCc2c(nc(C3CC3)n2C)C1 | -0.539%
43 | COc1ccc(C(CC(=O)O)NC(=O)CCc2cccs2)cc1OC (stereo not drawn) | 4.75%
44 | CC(NC(=O)NCCn1ccnc1)c1nncn1C (stereo not drawn) | 20.5%
45 | N#Cc1cccc(OCc2ccoc2C(=O)N2CCCCCC2)c1 | -2.71%
46 | Cc1csc(C2NC3(CCCC3)C(=O)N2CC2CC2)n1 (stereo not drawn) | 4.39%
47 | Cc1nc(CN2CCCc3cc(OC(F)(F)F)ccc32)oc1C | 4.79%
48 | COc1ccc2c(c1)CCCN2Cc1nc(C)c(C)o1 | -4.99%
49 | CCc1nc(C2NC3(CCCC3)C(=O)N2CC2CC2)cs1 (stereo not drawn) | 22.7%
50 | O=C(c1ccc(CN2CCCCC2)cc1)N1CCCC1c1cccs1 (stereo not drawn) | -0.233%

Row | SMILES | cytotoxicity at 70.5 h
51 | Cc1nc(C2NC3(CCCC3)C(=O)N2CC2CC2)cs1 (stereo not drawn) | -5.61%
52 | CCCN(Cc1ccccc1O)S(=O)(=O)N(C)CC | -6.19%
53 | CCC(C)S(=O)(=O)N(Cc1ccco1)Cc1ccccc1O (stereo not drawn) | -10.4%
54 | COCCN1CCC(CNC(=O)c2c[nH]c(=O)c(Cl)c2)CC1 | -10.5%
55 | Cc1noc(CCNC(=O)NCC(=O)NCc2ccccc2)n1 | -4.83%
56 | NS(=O)(=O)CCN1CCN(c2ccccc2O)CC1 | -0.407%
57 | CC(=O)Nc1ccc(CNC(C)c2c(C)nn(C)c2C)cc1 (stereo not drawn) | 13.1%
58 | c1cnc(-c2nc(C3CCOC3)no2)cn1 (stereo not drawn) | -3.44%
59 | CN1CCN(C(=O)c2cccn2C)c2ccccc2C1 | -6.26%
60 | O=C(NCCOc1ccc(Cl)cn1)NCCc1ccccn1 | -3.16%
61 | Cc1cc(NC(=O)NCCOc2ccc(Cl)cn2)no1 | -3.43%
62 | Cc1csc(C(C)(C)NCc2ncc(-c3ccc(F)cc3)o2)n1 | -4.53%
63 | Cc1nn(C)c(C)c1C(C)NCc1ccsc1 (stereo not drawn) | 3.61%
64 | CSCc1cc(F)ccc1CNC(=O)N1CCC(CO)CC1 | -0.781%
65 | CN1CCOC(CNCCOc2ccc(C#N)cc2)C1 (stereo not drawn) | -5.57%
66 | COc1ccnc(NC(Cc2ccccc2)C(=O)N(C)C)n1 (stereo not drawn) | 5.68%
67 | OCCCN1CCCC1c1nc(Cc2ccc(F)cc2)no1 (stereo not drawn) | 8.04%
68 | Fc1ccc(CNCCn2cccn2)cc1F | 16.8%
69 | O=C(CNC1CCc2ncnn2C1)NCCc1cccs1 (stereo not drawn) | 2.68%
70 | CCc1nc(C)c(C(C)N(C)CCOC)s1 (stereo not drawn) | 10.1%
71 | O=C(NCCNc1ccccn1)NC1CCCC1 | -4.33%
72 | CN(Cc1ccc(Cl)cc1)C(=O)Nc1cnn(CC(N)=O)c1 | 8.79%
73 | Cc1ccccc1CC(C)(C)NC(=O)c1cccc(OCC(N)=O)c1 | -4.51%
74 | Cn1cc(C(=O)NCCC(=O)N2CCCCC2)c(-c2cccnc2)n1 | 6.62%
75 | COc1cccc(NC(=O)N2CCC(O)(C(F)(F)F)C2)c1 (stereo not drawn) | -2.52%

Row | SMILES | cytotoxicity at 70.5 h
76 | O=C(c1ccccc1O)N1CCn2c(nnc2C(F)(F)F)C1 | -1.13%
77 | Cc1ccccc1CC(C)(C)NC(=O)CCOc1cccc(C(N)=O)c1 | 4.51%
78 | COc1ccc(CN(C(=O)CCC(C)C)c2cnn(C)c2)c(OC)c1 | -4.57%
79 | NS(=O)(=O)CCN1CCN(c2cc(F)ccc2F)CC1 | 10.3%
80 | CCOCc1cccc(NCc2c[nH]nc2-c2cccnc2)c1 | -2.34%
81 | C=C(C)CN1CCCC1c1nc(Cc2ccc(F)cc2)no1 (stereo not drawn) | 12.4%
82 | CCc1nc2n(n1)CC(NCCc1cccs1)CC2 (stereo not drawn) | 3.55%
83 | CCN1CCCN(S(=O)(=O)c2cc3ccccc3o2)CC1 | -4.88%
84 | COCCCSc1ccc(NCc2ccc(C)cn2)cc1 | -6.35%
85 | Cc1csc(CNCC2CCCN(C(=O)OC(C)(C)C)C2)n1 (stereo not drawn) | -1.06%
86 | Cc1nnc2n1CCN(CC(=O)NC(C)c1cc3ccccc3o1)C2 (stereo not drawn) | 2.01%
87 | CCCn1nnnc1CSc1nccn1C | -7.23%
88 | CN1CCN(C(C)(C)CNC(=O)C2CCCN2S(C)(=O)=O)CC1 (stereo not drawn) | -6.25%
89 | Cc1cc(CN2CCN(C(=O)C3(C#N)CCCCC3)CC2)on1 | -4.13%
90 | N#Cc1ccc(F)c(CNC(=O)NC(CO)c2ccccc2)c1 (stereo not drawn) | 13.7%
91 | COC(=O)COc1cc(NCc2c(C)noc2C)c(Cl)cc1C | -5.04%
92 | Cc1ccc(Br)c(S(=O)(=O)NCc2ccnn2C)c1 | -5.04%
93 | N#Cc1ccc(C(=O)O)nc1/C=C/c1cccc(Cl)c1 | 7.88%
94 | CCC(CC)(CCO)CNC(=O)c1ccon1 | -8.6%
95 | O=C(COc1ccccc1)NCC1CC1 | 9.36%
96 | CCc1nnc(C2Cc3ccccc3CN2Cc2ncc(Cl)n2C)o1 (stereo not drawn) | -6.23%
97 | Cc1cc(CN2CCc3cncnc3C2)no1 | -8.98%
98 | Oc1cccc(C2CN(c3nnc(C4CC4)s3)CCO2)c1 (stereo not drawn) | -4.99%
99 | CC(C)CCn1ccc(NC(=O)N2CCCC2C(C)(C)O)n1 (stereo not drawn) | -6.63%
100 | CCc1nc(CN2CCCN(CC(=O)N3CCOCC3)CC2)no1 | 41.7%

Row | SMILES | cytotoxicity at 70.5 h
101 | Cc1c(C(C)NC(=O)C2CCCC2)cnn1C (stereo not drawn) | 36.2%
102 | Cc1c(C(C)NC(=O)N2CCN(C3CCCC3)CC2)cnn1C (stereo not drawn) | 54.3%
103 | CCCNC(=O)CCNC(=O)c1sc2ccc(F)cc2c1C | 31.9%
104 | N#Cc1ccc(CN2C(=O)c3ccccc3CS2(=O)=O)c(F)c1 | 2.45%
105 | CC(=O)NCCCNC(=O)Nc1ccccc1-n1nc(C)cc1C | 0.874%
106 | Cc1c(C(=O)NCCCC(N)=O)sc2ccc(F)cc12 | 25.3%
107 | Cc1nc2n(n1)CC(Nc1ccnc(-c3ccccc3)n1)CC2 (stereo not drawn) | -6.55%
108 | CCCc1nnc(NC(=O)NC(CCO)c2cccs2)s1 (stereo not drawn) | -3.88%
109 | Cc1cnc(NC(=O)NC(CCO)c2cccs2)s1 (stereo not drawn) | -3.17%
110 | CCCn1nc2c(cc1=O)CN(C(C)C(=O)Nc1nccs1)CC2 (stereo not drawn) | 4.51%
111 | CC(C)Cc1nnc(NC(=O)NC(CCO)c2cccs2)s1 (stereo not drawn) | -3.34%
112 | CC(C(=O)Nc1ccnn1C(C)C)N1CCc2nn(C)c(=O)cc2C1 (stereo not drawn) | 4.22%
113 | OCC1(NCc2cnc(-c3cccs3)s2)CCOCC1 | -6.15%
114 | CN(C(=O)NCc1nccn1Cc1ccccc1)C1CC1 | 9.16%
115 | OCC1(NCc2cnc(-c3ccsc3)s2)CCOCC1 | -6.13%
116 | COc1ccc(CC(=O)NC2(C#N)CCOCC2)c(Cl)c1 | 3.22%
117 | O=C(NCc1nccn1CCc1ccccc1)NCC1CCC1 | 2.35%
118 | COc1ccc(C)cc1CC(=O)NC1(C#N)CCOCC1 | 29.1%
119 | Cc1cnc(CN2CC=C(c3c[nH]c4ncccc34)CC2)o1 | 5.53%
120 | Cc1c(Br)cccc1C(=O)NCCC1CCCNC1 (stereo not drawn) | 12%
121 | c1cc2c(cc1C1(CNC3=NCCN3)CCCC1)OCCO2 | -3.87%
122 | Clc1ccc(C2(CNC3=NCCN3)CCCC2)cc1 | 8.18%
123 | Fc1ccc(C2(CNC3=NCCCN3)CCC2)cc1 | -0.346%

From ChEMBL document CHEMBL3507680, “University of Dundee, Gates Library screen for HepG2 cell viability”
